According to US6903097B2 (dated 2005):

Compared with `O=C(NCc1ccc(Cl)cc1)c1cnc2ccc(C#CCO)cn2c1=O`, `O=C(NCc1ccc(Cl)cc1)c1coc2ccc(C#CCO)cc2c1=O` is higher in melting point: 179 to 181 °C for the first, 185 to 186 °C for the second.

First: CN1c2ccc(C#CCO)cc2C(O)=C(C(=O)NCc2ccc(Cl)cc2)S1(=O)=O
Second: O=C(NCc1ccc(Cl)cc1)c1noc2ccc(C#CCO)cc2c1=O
The melting point of the first is higher: 167 to 168 °C for the first, 117 to 120 °C for the second.

First: O=C(NCc1ccc(Cl)cc1)c1nn(-c2ccccc2)c2sc(CN3CCOCC3)cc2c1=O
Second: O=C(NCc1ccc(Cl)cc1)c1ccc2sc(CN3CCOCC3)cc2c1O
The melting point of the first is lower: 182 to 184 °C for the first, 200 °C for the second.

Work on `Cn1nc(C(=O)NCc2ccc(Cl)cc2)c(=O)c2cc(C#CCO)cnc21` yielded a melting point of 201 to 206 °C.

For `CN1N=C(C(=O)NCc2ccc(Cl)cc2)S(=O)(=O)c2cc(C#CCO)sc21`, the melting point was 98 °C (dec.).
